The record followed here is patent US10913727B2, “Modulators of the integrated stress pathway” (Calico Life Sciences LLC, priority 2016, dated 2021).

The assay has as its system HEK293T cells carrying the ATF4 luciferase reporter. The experiment in a line: ATF4-Luc assay, in vitro model of Vanishing Cell White Matter Disease (VWMD). The note with it: Homo sapiens, HEK-293T, 1 μg/mL tunicamycin, 7 hours, One Glo luminescence. In kind it is cell-based. The method, boiled down: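 Compound at 200 nM and tunicamycin at 1 μg/mL were given together for 7 h to HEK293T cells stably transduced with an ATF4 5′-UTR-driven firefly luciferase reporter. Read-out by luminescence, reported as EC50.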
For the compound `CC(C)c1ccc(C(=O)NC23CC(NC(=O)COc4ccc(Cl)c(Cl)c4)(C2)C3)cn1` [Compound 643, N-{3-[2-(3,4-dichlorophenoxy)acetamido]bicyclo[1.1.1]pentan-1-yl}-6-(propan-2-yl)pyridine-3-carboxamide], the EC50 was 0.25 to 1 µM.

Take `O=C(COc1ccc(Cl)c(F)c1)NC12CC(NC(=O)c3ccncc3)(C1)C2` [Compound 186, N-{3-[2-(4-chloro-3-fluorophenoxy)acetamido]bicyclo[1.1.1]pentan-1-yl}pyridine-4-carboxamide]: the EC50 fell in the range of 0.25 to 1 µM.

In the case of `COc1cncc(C(=O)NC23CC(NC(=O)COc4ccc(Cl)c(F)c4)(C2)C3)c1` [Compound 790, N-{3-[2-(4-chloro-3-fluorophenoxy)acetamido]bicyclo[1.1.1]pentan-1-yl}-5-methoxypyridine-3-carboxamide], the EC50 fell in the range of 0.05 to 0.25 µM.

For `COCc1ccccc1C(=O)NC12CC(NC(=O)COc3ccc(Cl)c(F)c3)(C1)C2` [Compound 550, N-{3-[2-(4-chloro-3-fluorophenoxy)acetamido]bicyclo[1.1.1]pentan-1-yl}-2-(methoxymethyl)benzamide], the EC50 lay within 1 to 2 µM.

Consider `O=C(COc1ccc(Cl)cc1)NC12CC(NC(=O)c3ccc(OC(F)(F)F)nc3)(C1)C2` [Compound 570, N-{3-[2-(4-chlorophenoxy)acetamido]bicyclo[1.1.1]pentan-1-yl}-6-(trifluoromethoxy)pyridine-3-carboxamide], for which the EC50 was 0.05 to 0.25 µM.

As for `Cc1onc(C(=O)NC23CC(NC(=O)COc4ccc(Cl)c(F)c4)(C2)C3)c1C` [Compound 901, N-{3-[2-(4-chloro-3-fluorophenoxy)acetamido]bicyclo[1.1.1]pentan-1-yl}-4,5-dimethyl-1,2-oxazole-3-carboxamide], the EC50 was greater than 2 µM.

Turning to `O=C(COc1ccc(Cl)cc1)NC12CC(NC(=O)c3cnc(C(F)F)cn3)(C1)C2` [Compound 202, N-{3-[2-(4-chlorophenoxy)acetamido]bicyclo[1.1.1]pentan-1-yl}-5-(difluoromethyl)pyrazine-2-carboxamide], the EC50 was 0.05 to 0.25 µM.

On to `O=C(COc1ccc(Cl)c(F)c1)NC12CC(Nc3nccc(-c4ccccc4)n3)(C1)C2` [Compound 363, 2-(4-chloro-3-fluorophenoxy)-N-{3-[(4-phenylpyrimidin-2-yl)amino]bicyclo[1.1.1]pentan-1-yl}acetamide], for which the EC50 fell in the range of 1 to 2 µM.

With `Cc1cc(C)c(C(=O)NC23CC(NC(=O)COc4ccc(Cl)c(F)c4)(C2)C3)cn1` [Compound 815, N-{3-[2-(4-chloro-3-fluorophenoxy)acetamido]bicyclo[1.1.1]pentan-1-yl}-4,6-dimethylpyridine-3-carboxamide], the EC50 was greater than 2 µM.

For `O=C(COc1ccc(Cl)c(Cl)c1)NC12CC(NC(=O)c3cc(OC(F)F)ccn3)(C1)C2` [Compound 716, N-{3-[2-(3,4-dichlorophenoxy)acetamido]bicyclo[1.1.1]pentan-1-yl}-4-(difluoromethoxy)pyridine-2-carboxamide], the EC50 lay within 0.25 to 1 µM.

In the case of `Cc1ncc(C(=O)NC23CC(NC(=O)COc4ccc(Cl)c(F)c4)(C2)C3)s1` [Compound 285, N-{3-[2-(4-chloro-3-fluorophenoxy)acetamido]bicyclo[1.1.1]pentan-1-yl}-2-methyl-1,3-thiazole-5-carboxamide], the EC50 was in the range of 0.05 to 0.25 µM.

With `Cc1onc(-c2ccccn2)c1C(=O)NC12CC(NC(=O)COc3ccc(Cl)c(F)c3)(C1)C2` [Compound 804, N-{3-[2-(4-chloro-3-fluorophenoxy)acetamido]bicyclo[1.1.1]pentan-1-yl}-5-methyl-3-(pyridin-2-yl)-1,2-oxazole-4-carboxamide], the concentration giving a half-maximal response (EC50) is greater than 2 µM.

As to `O=C(COc1ccc(Cl)c(F)c1)NC12CCC(NC(=O)c3cccnn3)(CC1)C(O)C2` (stereo not shown) [Compound 227, N-{4-[2-(4-chloro-3-fluorophenoxy)acetamido]-2-hydroxybicyclo[2.2.2]octan-1-yl}pyridazine-3-carboxamide], the EC50 was 0.25 to 1 µM.

A word on the EC50: it is the midpoint of the concentration-response curve.
